Laboratory results: patent publication US4719200A, “Amino acid derivatives and antihypertensive drugs containing the same” (Ajinomoto Co., Inc., priority 1984, dated 1988)
Peptide text beside a SMILES is read from it. * marks the point of attachment. Cbz = O=C(OCc1ccccc1)*; PhAc = O=C(Cc1ccccc1)*; Bz = O=C(c1ccccc1)*

Test system: spontaneously hypertensive rates (SHR rats)
Test: Measurement of change in blood pressure (systolic, indirect, conscious rats) after one oral dose
Assay type: in vivo, rat
Conditions: for Δ Blood Pressure (systolic): lowest value minus value before administration; for Systolic Blood Pressure, Lowest Value: after administration
Procedure: The antihypertensive activities of the amino acid derivatives as prepared above were determined.
As subject animals, there were used 5 spontaneously hypertensive rates (SHR rats) which had been sufficiently trained and confirmed to be hypertensive (mode, the body weight of 400 g) per a sample.
As an instrument for measuring the blood pressure there was used Programmed Electro-Sphygmomanometer PE-300 (Narco Co., U.S.A.), and the blood pressure was indirectly measured on conscious rats.
An aqueous solution of a sample (0.05 m mole/kg) was once force-fed into the stomach by means of a […] probe. As a control, the water as deionized was fed to the same animals as above.

[1] = SHR rats, 5 per sample, before single force-feeding into the stomach of 0.05 m mole/kg aqueous solution
[2] = SHR rats, single force-feeding into the stomach, 0.05 m mole/kg
[3] = second table (Examples 25-43), before administration

Compound	Systolic Blood Pressure, Value Before Administration [1]	Hours after administration (of lowest systolic blood pressure value) [2]	Systolic Blood Pressure, Lowest value after administration [2]	Δ Blood Pressure (systolic) [2]	Hrs. After Admin. (of lowest systolic blood pressure value) (second table (Examples 25-43))	Systolic Blood Pressure, Lowest Value (second table (Examples 25-43))	Systolic Blood Pressure, Value Before Administration [3]	Δ Blood Pressure (systolic) (second table (Examples 25-43))
N-(benzylthio) thiocarbonyl-L-alanyl-L-prolyl-L-proline L-arginine salt [Example 9]	216 mm Hg	24 h	191 mm Hg	-25 mm Hg				
C[C@H](NC(=O)Cc1ccccc1)C(=O)N1CCC[C@H]1C(=O)N1CCC[C@H]1C(=O)O [Example 14, N-phenylacetyl-L-alanyl-L-prolyl-L-proline] (PhAc-Ala-Pro-Pro-OH)			175 mm Hg	-24 mm Hg				
CCS(=O)(=O)N[C@@H](CCC(=O)O)C(=O)N1CCC[C@H]1C(=O)N1CCC[C@H]1C(=O)O [Example 40, N--ethane sulfonyl-L-glutamyl-L-prolyl-L proline]					8 h	202	220	-18
N-(3-phenylpropionyl)-L-alanyl-L-prolyl-L-proline L-arginine salt [Example 2]	190 mm Hg	24 h	154 mm Hg	-36 mm Hg				
O=C(O)CC[C@H](NC(=O)c1ccccc1)C(=O)N1CCC[C@H]1C(=O)N1CCC[C@H]1C(=O)O [Example 28, N--benzoyl-L-glutamyl-L-prolyl-L-proline] (Bz-Glu-Pro-Pro-OH)					8 h	196	235	-39
CCS(=O)(=O)N[C@@H](CO)C(=O)N1CCC[C@H]1C(=O)N1CCC[C@H]1C(=O)[O-].[Na+] [Example 42, N--ethane sulfonyl-L-seryl-L-prolyl-L-proline sodium salt]					24 h	200	220	-20
C[C@H](NC(=O)c1ccco1)C(=O)N1CCC[C@H]1C(=O)N1CCC[C@H]1C(=O)O [Example 7, N-(2-furoyl)-L-alanyl-L-prolyl-L-proline]			177 mm Hg	-28 mm Hg				
CC(=O)N[C@@H](C)C(=O)N1CCC[C@H]1C(=O)N1CCC[C@H]1C(=O)O [Example 3, N-acetyl-L-alanyl-L-prolyl-L-proline] (Ac-Ala-Pro-Pro-OH)			160 mm Hg	-41 mm Hg				
C[C@H](NC(=O)OCc1ccccc1)C(=O)N1CCC[C@H]1C(=O)N1CCC[C@H]1C(=O)O.NC(N)=NCCC[C@H](N)C(=O)O [Example 15, N-benzyloxycarbonyl-L-alanly-L-prolyl-L-proline L-arginine salt] (Cbz-Ala-Pro-Pro-OH)	205 mm Hg	4 h	172 mm Hg	-33 mm Hg				
C[C@H](NC(=O)c1ccccc1)C(=O)N1CCC[C@H]1C(=O)N1CCC[C@H]1C(=O)O [Example 13, N-benzoyl-L-alanyl-L-prolyl-L-proline] (Bz-Ala-Pro-Pro-OH)			177 mm Hg	-43 mm Hg				
